Results on 21 compounds are retold here after patent publication US20250169498A1, “SYNERGISTIC FUNGICIDAL INTERACTIONS OF A PICOLINAMIDE FUNGICIDE WITH OTHER FUNGICIDES AGAINST ASIAN SOYBEAN RUST” (CORTEVA AGRISCIENCE LLC, priority 2020, published 2025).

Assay [1] has as its system Phakopsora pachyrhizi, PHAKPA. Put plainly: 1-day protectant (1 DP) PHAKPA test on soybean seedlings. As to conditions: alone; for pest or weed control at 0.024 ppm: rate 0.024 ppm; for pest or weed control at 0.0015 ppm: rate 0.0015 ppm; for pest or weed control at 0.006 ppm: rate 0.006 ppm; for pest or weed control at 12.5 ppm: rate 12.5 ppm; for pest or weed control at 0.049 ppm: rate 0.049 ppm. The assay is classed as in vivo. As to the method:
(§1) Fungicides were evaluated vs. PHAKPA either alone or in binary or ternary mixtures by combining each fungicide with Compound I. Technical grades of materials were dissolved in 1.5 ml of acetone, which were then mixed with 13.5 ml of water containing 0.011% Tween 20. The fungicide solutions were applied onto soybean seedlings using an automated booth sprayer to run-off. All sprayed plants were allowed to air dry prior to further handling. Soybean plants (variety Williams 82) were grown in soil-less Metro mix, with one plant per pot. Two weeks old seedlings were used for testing. Plants were inoculated either 3 days prior to or 1 day after fungicide treatments. Plants were incubated for 24 h in a dark dew room at 22° C. and 100% RH then transferred to a growth room at 23° C. for disease to develop. Once disease fully expressed on untreated plants, disease severity was assessed on the sprayed monofoliate leaves.
(§2) Synergy factors were calculated using Colby's method. The expected disease control (% DC exp) of a mixture consisting of two or three components can be predicted by the following formula: […]
(§3) where A, B, C are the percent disease control given by the individual fungicide component at the defined rate in the mixture. If the ratio (synergy factor) between the observed disease control of the mixture (% DCobs) and the expected disease control of the mixture (% DCexp) is greater than 1, synergistic interaction is present.
(§4) When disease fully developed on the control plants, infection levels were assessed on treated plants visually and scored on a scale of 0 to 100 percent. Percentage of disease control was then calculated using the ratio of disease on treated plants relative to control plants. […]

Assay [2] deals with Phakopsora pachyrhizi, PHAKPA. The experiment in a line: 3-day curative (3 DC) PHAKPA test on soybean seedlings. The assay is classed as in vivo. As to conditions: alone; for pest or weed control at 0.195 ppm: rate 0.195 ppm; for pest or weed control at 0.049 ppm: rate 0.049 ppm; for pest or weed control at 0.024 ppm: rate 0.024 ppm. The method, then:
as §1, §2, §3, §4

Setting [3] is: Phakopsora pachyrhizi, read-out: % DC obs.
The mark [4] stands for this setting: Phakopsora pachyrhizi, rate 0.39 ppm, read-out: % DC obs.
[5] abbreviates: Phakopsora pachyrhizi, rate 37.5 ppm, read-out: % DC obs.
The mark [6] stands for this setting: Phakopsora pachyrhizi, rate 75 ppm, read-out: % DC obs.
[7] abbreviates: Phakopsora pachyrhizi, rate 0.78 ppm, read-out: % DC obs.
[8] abbreviates: Phakopsora pachyrhizi, rate 3.125 ppm, read-out: % DC obs.
Setting [9] is: Phakopsora pachyrhizi, rate 0.195 ppm, read-out: % DC obs.
The mark [10] stands for this setting: Phakopsora pachyrhizi, rate 0.19 ppm, read-out: % DC obs.
[11] abbreviates: Phakopsora pachyrhizi, rate 0.012 ppm, read-out: % DC obs.
The mark [12] stands for this setting: Phakopsora pachyrhizi, rate 200 ppm, read-out: % DC obs.

As to `CO/C=C(/C(=O)OC)c1ccccc1Oc1cc(Oc2ccccc2C#N)ncn1` [Azoxystrobin, methyl (αE)-2-[[6-(2-cyanophenoxy)-4-pyrimidinyl]oxy]-α-(methoxymethylene)benzeneacetate], the pest or weed control at 0.024 ppm in assay [1] (setting [3]) came out at 22.2%. Besides, in assay [1] (Phakopsora pachyrhizi, rate 0.098 ppm, read-out: % DC obs), the pest or weed control at 0.098 ppm came to 50.4%. Moreover, the pest or weed control at 0.39 ppm in assay [2] (setting [4]) came to 31.7%.

In the case of `N#Cc1c(Cl)c(Cl)c(Cl)c(C#N)c1Cl` [Chlorothalonil, tetrachlorisophthalonitrile], the pest or weed control at 37.5 ppm came out at 0% in assay [1] (setting [5]) and 4.6% in assay [2] (setting [5]). Further, the pest or weed control at 75 ppm in assay [1] (setting [6]) turned out to be 87%; in assay [2] (setting [6]), 13.7%. Also, the pest or weed control at 150 ppm in assay [2] (Phakopsora pachyrhizi, rate 150 ppm, read-out: % DC obs) came out at 18.3%.

With `CCC(=O)Oc1c(OC)ccnc1C(=O)N[C@@H](C)C(=O)O[C@@H](C)[C@@H](C)c1ccccc1C` [Compound I], the pest or weed control at 0.39 ppm in assay [1] (setting [4]) came out at 79.2%. In addition, the pest or weed control at 1.56 ppm in assay [2] (Phakopsora pachyrhizi, rate 1.56 ppm, read-out: % DC obs) amounted to 77.6%.

Consider `CO/N=C(/C(=O)OC)c1ccccc1CO/N=C(\C)c1cccc(C(F)(F)F)c1` [Trifloxystrobin, methyl (2E)-2-methoxyimino-2-[2-[[(E)-1-[3-(trifluoromethyl)phenyl]ethylideneamino]oxymethyl]phenyl]acetate], for which the pest or weed control at 0.195 ppm in assay [2] (setting [3]) turned out to be 18.3%.

`CC(C1CC1)C(O)(Cn1cncn1)c1ccc(Cl)cc1` (stereo not shown) [Cyproconazole, 2-(4-chlorophenyl)-3-cyclopropyl-1-(1,2,4-triazol-1-yl)butan-2-ol]: in assay [1] (setting [3]), the pest or weed control at 0.0015 ppm came out at 11.1%, the pest or weed control at 0.006 ppm is 3.7% and the pest or weed control at 0.024 ppm worked out at 11.1%.

Consider `CNC(=O)/C(=N/OC)c1ccccc1Oc1ccccc1` [Metominostrobin, (2E)-2-methoxyimino-N-methyl-2-(2-phenoxyphenyl)acetamide], for which the pest or weed control at 0.78 ppm in assay [1] (setting [7]) stood at 0%; in assay [2] (setting [7]) it was 33.3%. Also, the pest or weed control at 3.125 ppm amounted to 11.1% in assay [1] (setting [8]) and 67.6% in assay [2] (setting [8]). Moreover, in assay [1] (setting [3]), the pest or weed control at 12.5 ppm is 64.4%.

For the compound `OC(Cc1ccccc1Cl)(Cn1[nH]cnc1=S)C1(Cl)CC1` (stereo not shown) [Prothioconazole, 2-[2-(1-chlorocyclopropyl)-3-(2-chlorophenyl)-2-hydroxypropyl]-1,2-dihydro-3H-1,2,4-triazole-3-thione], in assay [1] (setting [3]), the pest or weed control at 0.0015 ppm was 0% and the pest or weed control at 0.006 ppm turned out to be 7.4%.

`Cn1cc(C(=O)Nc2ccc(F)cc2-c2ccc(Cl)c(Cl)c2)c(C(F)F)n1` [Bixafen, N-(3′,4′-dichloro-5-fluoro[1,1′-biphenyl]-2-yl)-3-(difluoromethyl)-1-methyl-1H-pyrazole-4-carboxamide]: the pest or weed control at 0.195 ppm in assay [1] (setting [9]) was found to be 0%. For the same compound, the pest or weed control at 0.78 ppm in assay [2] (setting [7]) turned out to be 0%. In addition, the pest or weed control at 3.125 ppm in assay [2] (setting [8]) was 0%.

With `[Cl-].[Cu+2].[Cu+2].[OH-].[OH-].[OH-]` [Cu Oxychloride], in assay [2] (rate 200 ppm), the “% DC obs” value is 13.7%.

Regarding `CCCC1COC(Cn2cncn2)(c2ccc(Cl)cc2Cl)O1` (stereo not shown) [Propiconazole, 1-[[2-(2,4-dichlorophenyl)-4-propyl-1,3-dioxolan-2-yl]methyl]-1,2,4-triazole], the pest or weed control at 0.195 ppm in assay [1] (setting [9]) is 19.9%. Besides, in assay [1] (setting [7]), the pest or weed control at 0.78 ppm is 78%. For the same compound, in assay [2] (setting [3]), the pest or weed control at 0.049 ppm was found to be 9.2% and the pest or weed control at 0.195 ppm was 59.1%.

As to `CC1COC(Cn2cncn2)(c2ccc(Oc3ccc(Cl)cc3)cc2Cl)O1` (stereo not shown) [Difenoconazole, 1-[[2-[2-chloro-4-(4-chlorophenoxy)phenyl]-4-methyl-1,3-dioxolan-2-yl]methyl]-1,2,4-triazole], the pest or weed control at 0.19 ppm in assay [1] (setting [10]) is 41.9%; in assay [2] (setting [10]), 18.3%.

With `FC(F)C(F)(F)OCC(Cn1cncn1)c1ccc(Cl)cc1Cl` (stereo not shown) [Tetraconazole, 1-[2-(2,4-dichlorophenyl)-3-(1,1,2,2-tetrafluoroethoxy)propyl]-1,2,4-triazole], the pest or weed control at 0.012 ppm was determined as 0% in assay [1] (setting [11]) and 13.7% in assay [2] (setting [11]). The pest or weed control at 0.049 ppm in assay [1] (setting [3]) came to 0%; in assay [2] (setting [3]) it was 13.7%. For the same compound, in assay [1] (setting [9]), the pest or weed control at 0.195 ppm was 90%.

Regarding `CON(C(=O)c1cn(C)nc1C(F)F)C(C)Cc1c(Cl)cc(Cl)cc1Cl` (stereo not shown) [Pydiflumetofen, 3-(difluoromethyl)-N-methoxy-1-methyl-N-[1-(2,4,6-trichlorophenyl)propan-2-yl]pyrazole-4-carboxamide], the pest or weed control at 12.5 ppm in assay [1] (setting [3]) is 0%. Also, the pest or weed control at 50 ppm in assay [1] (Phakopsora pachyrhizi, rate 50 ppm, read-out: % DC obs) was determined as 15.3%. Further, the pest or weed control at 200 ppm in assay [1] (setting [12]) stood at 85.4%.

On to `Fc1ccc([C@]2(Cn3cncn3)O[C@H]2c2ccccc2Cl)cc1` (racemic) [Epoxiconazole, rel-1-[[(2R,3S)-3-(2-chlorophenyl)-2-(4-fluorophenyl)oxiranyl]methyl]-1H-1,2,4-triazole], for which, in assay [1] (setting [3]), the pest or weed control at 0.006 ppm is 3.7% and the pest or weed control at 0.024 ppm was determined as 48.1%. For the same compound, the pest or weed control at 0.024 ppm in assay [2] (setting [3]) was found to be 0%.

In the case of `CC(O)(Cn1cncn1)c1ccc(Oc2ccc(Cl)cc2)cc1C(F)(F)F` (stereo not shown) [Mefentrifluconazole, 2-[4-(4-chlorophenoxy)-2-(trifluoromethyl)phenyl]-1-(1,2,4-triazol-1-yl)propan-2-ol], the pest or weed control at 0.049 ppm in assay [1] (setting [3]) was 9.9%; in assay [2] (setting [3]), 43.7%. Further, the pest or weed control at 0.195 ppm amounted to 87% in assay [1] (setting [9]) and 69.1% in assay [2] (setting [3]).

For the compound `CC(Cc1ccc(C(C)(C)C)cc1)CN1C[C@@H](C)O[C@@H](C)C1` (stereo partly drawn) [Fenpropimorph, (2S,6R)-4-[3-(4-tert-butylphenyl)-2-methylpropyl]-2,6-dimethylmorpholine], the pest or weed control at 100 ppm in assay [2] (Phakopsora pachyrhizi, rate 100 ppm, read-out: % DC obs) was 36.4%. In assay [2] (setting [12]), the pest or weed control at 200 ppm came to 61.9%.

On to `CO/C=C(/C(=O)OC)c1ccccc1COc1cccc(C(F)(F)F)n1` [Picoxystrobin, methyl (E)-3-methoxy-2-[2-[[6-(trifluoromethyl)pyridin-2-yl]oxymethyl]phenyl]prop-2-enoate], for which the pest or weed control at 0.195 ppm in assay [1] (setting [9]) was 0%; in assay [2] (setting [3]), 14.8%. Further, the pest or weed control at 0.78 ppm amounted to 80% in assay [1] (setting [7]) and 53.3% in assay [2] (setting [7]). Besides, the “% DC obs” value in assay [1] (rate 0.195 ppm) came out at 0%; in assay [1] (rate 0.78 ppm), 80%. The pest or weed control at 0.049 ppm in assay [2] (setting [3]) turned out to be 18.5%.

With `Cn1cc(C(=O)Nc2ccccc2-c2cc(F)c(F)c(F)c2)c(C(F)F)n1` [Fluxapyroxad, 3-(difluoromethyl)-1-methyl-N-[2-(3,4,5-trifluorophenyl)phenyl]pyrazole-4-carboxamide], the pest or weed control at 0.195 ppm in assay [1] (setting [9]) is 3.7%; in assay [2] (setting [3]) it was 0%. The pest or weed control at 0.78 ppm in assay [1] (setting [7]) came to 11.1%. In addition, the pest or weed control at 3.125 ppm in assay [1] (setting [8]) came out at 80%; in assay [2] (setting [8]), 17.6%.

On to `CC(C)(C)C(O)(CCc1ccc(Cl)cc1)Cn1cncn1` (stereo not shown) [Tebuconazole, 1-(4-chlorophenyl)-4,4-dimethyl-3-(1,2,4-triazol-1-ylmethyl)pentan-3-ol], for which the pest or weed control at 0.0015 ppm in assay [1] (setting [3]) is 0%; in assay [2] (Phakopsora pachyrhizi, rate 0.0015 ppm, read-out: % DC obs), 0%. Moreover, the pest or weed control at 0.006 ppm is 11.1% in assay [1] (setting [3]) and 0% in assay [2] (Phakopsora pachyrhizi, rate 0.006 ppm, read-out: % DC obs). Besides, the pest or weed control at 0.024 ppm in assay [2] (setting [3]) turned out to be 11.7%.

As for “zinc manganese(2+)N-[2-(sulfidocarbothioylamino)ethyl]carbamodithioate [Mancozeb]”, the “% DC obs” value in assay [1] (rate 0.19 ppm) is 3.8%; in assay [1] (rate 0.78 ppm), 0%; in assay [1] (rate 3.125 ppm) it was 0%; in assay [2] (rate 0.19 ppm), 14.8%; in assay [2] (rate 0.78 ppm) it was 14.8%; in assay [2] (rate 3.125 ppm) it was 0%. Also, the “% DC obs” value in assay [2] (rate not given) was determined as 0%.

`Cn1cc(C(=O)Nc2cccc3c2C2CCC3C2=C(Cl)Cl)c(C(F)F)n1` (stereo not shown) [Benzovindiflupyr, N-[11-(dichloromethylidene)-3-tricyclo[6.2.1.0]undeca-2(7),3,5-trienyl]-3-(difluoromethyl)-1-methylpyrazole-4-carboxamide]: the “% DC obs” value worked out at 3.7% in assay [1] (rate 0.195 ppm), 11.1% in assay [1] (rate 0.78 ppm), 80.0% in assay [1] (rate 3.125 ppm) and 11.7% in assay [2] (rate 0.78 ppm).
